Data as given in patent US20070098770A1, “Cosmetic path using method thereof, and cosmetic path package” (priority 2003, published 2007).

How the values were obtained:
[1] = Stability of vitamin C dissolved in water; format: physicochemical; details: eight hours after it is dissolved in water
[2] = cited from earlier work

O=C1O[C@H]([C@@H](O)CO)C(O)=C1O [Vitamin C, L-ascorbic acid]
portion oxidized into dehydroascorbic acid and deactivated by hydrolysis [1]: at least 10%
volume of an absolute alcohol in which 1 g dissolves ([2]; absolute alcohol): 50 mL
volume of an alcohol in which 1 g dissolves ([2]; alcohol): 30 mL
volume of glycerol in which 1 g dissolves ([2]; glycerol): 100 mL
volume of propylene glycol in which 1 g dissolves ([2]; propylene glycol): 20 mL
volume of water in which 1 g dissolves ([2]; water): 3 mL

tocopherol [vitamin E]
solubility in an alcohol ([2]; alcohol (95% in ethanol)): readily soluble
solubility in water ([2]; water): almost insoluble
